Source: patent US6310095A, “Inhibitors of protein isoprenyl transferases” (University of Pittsburgh, priority 1998, dated 2001)
Counter-ions that a name gives are not always drawn. Like-named read-outs stand apart in the source and are kept apart here. One block for each molecule: values may come before it.

Target: T1, protein farnesyltransferase (Rattus norvegicus, UniProt Q02293+Q04631)
T1 construct: Rat brain protein farnesyltransferase activity is measured; from tissue; host or cells: rat brain; purified according to Reiss et al., Cell 62:81-88 (1990), steps one through three
Test: in vitro inhibition of protein farnesyltransferase (scintillation proximity assay, biotin-K Ras B fragment)
Type: biochemical
Details: for inhibition at 1 µM / inhibition at 0.1 µM / inhibition at 0.01 µM: read-out: % inhibition of farnesyltransferase; for inhibition at 10 µM: at 1 × 10^-5 M
In short: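 Scintillation proximity read-out of farnesylation, using a biotinylated K Ras B fragment (0.1 mM final) in place of biotin-lamin. Enzyme purified from rat brain; results given as % inhibition.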

SMILES: CSCC[C@H](NC(=O)c1ccc(COCc2ccc(-c3cccc(C(F)(F)F)c3)o2)cc1-c1ccccc1C)C(=O)[O-].[Li+] [Example 441]
% inhibition of farnesyltransferase (at 1 × 10^-7 M): 91%

SMILES: CSCC[C@H](NC(=O)c1ccc(COCc2cccc(Cl)c2)cc1-c1ccccc1C)C(=O)[O-].[Li+] [Example 934]
% inhibition of farnesyltransferase (at 1 × 10^-8 M): 71%

SMILES: CSCC[C@H](NC(=O)c1ccc(CSCc2ccc(C)cc2)cc1-c1ccccc1C)C(=O)[O-].[Li+] [Example 556]
% inhibition of farnesyltransferase (at 1 × 10^-6 M): 99%

SMILES: CSCC[C@H](NC(=O)c1ccc(CNc2ccc(C3CCCCC3)cc2)cc1-c1ccccc1)C(=O)O [Example 699]
inhibition at 10 µM: 74%

SMILES: CSCC[C@H](NC(=O)c1ccc(COCCC23CC4CC(CC(C4)C2)C3)cc1-c1ccccc1C)C(=O)O [Example 404]
% inhibition of farnesyltransferase (at 1 × 10^-6 M): 98%

SMILES: CSCC[C@@H](C(=O)[O-])N(C)C(=O)c1ccc(COCCCC2CCCCC2)cc1-c1ccccc1C.[Li+] [Example 597]
% inhibition of farnesyltransferase (at 1 × 10^-7 M): 75%

SMILES: CSCC[C@H](NC(=O)c1ccc(CN(CCC2CCCCC2)Cc2cncs2)cc1-c1ccccc1C)C(=O)O [Example 986]
inhibition at 0.01 µM (at 1 × 10^-8 M): 95%

SMILES: CSCC[C@H](NC(=O)c1ccc(COC(Cc2ccccc2)c2ccco2)cc1-c1ccccc1C)C(=O)[O-].[Li+] (stereo partly drawn) [Example 534]
% inhibition of farnesyltransferase (at 1 × 10^-7 M): 84%

SMILES: Cc1ccccc1-c1cc(CN(C2CC2)C2(Cc3ccccc3)CCC2)ccc1C(=O)N[C@@H](CCS(C)(=O)=O)C(=O)O [Example 333]
% inhibition of farnesyltransferase (at 1 × 10^-6 M): 99%

SMILES: CSCC[C@H](NC(=O)c1ccc(CN(Cc2ccc3c(c2)OCO3)c2cncnc2)cc1-c1ccccc1C)C(=O)O [Example 837, lithium salt]
inhibition at 0.01 µM (at 1 × 10^-8 M): 91%

SMILES: CSCC[C@H](NC(=O)c1ccc(-c2ccc(-c3ccccc3)cc2)cc1-c1ccccc1C)C(=O)[O-].[Li+] [Example 788]
% inhibition of farnesyltransferase (at 1 × 10^-6 M): 44%

SMILES: CSCC[C@H](NC(=O)c1ccc(CN[C@@H](CO)CC2CCCCC2)cc1-c1ccccc1C)C(=O)O [Example 618, N-[4-(3-cyclohexylpropan-1-ol-2-ylaminomethyl)-2-(2-methylphenyl)benzoyl]methionine Trifluoroacetate Salt]
inhibition at 0.1 µM (at 1 × 10^-7 M): 89%

SMILES: CSCC[C@H](NC(=O)c1ccc(CNCCC2CCCCC2)cc1-c1ccccc1)C(=O)O [Example 663]
inhibition at 10 µM: 43%

SMILES: CSCC[C@H](NC(=O)c1ccc(NC(=O)Cc2nccs2)cc1-c1ccccc1)C(=O)O [Example 163, [4-(thiazol-2-ylmethylcarbonyl)amino-2-phenylbenzoyl]methionine]
inhibition at 1 µM (at 1 × 10^-6 M): 18%

SMILES: CSCC[C@H](NC(=O)c1ccc(CCc2cccc(Oc3ccccc3)c2)cc1-c1ccccc1C)C(=O)[O-].[Li+] [Example 459]
% inhibition of farnesyltransferase (at 1 × 10^-7 M): 92%

SMILES: CCCCC(OCc1ccc(C(=O)N[C@@H](CCSC)C(=O)[O-])c(-c2ccccc2C)c1)c1ccco1.[Li+] (stereo partly drawn) [Example 825]
% inhibition of farnesyltransferase (at 1 × 10^-7 M): 79%

SMILES: CSCC[C@H](NC(=O)c1ccc(S(=O)(=O)NCCN2CCOCC2)cc1-c1ccccc1C)C(=O)O [Example 775]
% inhibition of farnesyltransferase (at 1 × 10^-6 M): 32%

SMILES: CSCC[C@H](NC(=O)c1ccc(COCCc2ccco2)cc1-c1ccccc1C)C(=O)[O-].[Li+] [Example 531]
% inhibition of farnesyltransferase (at 1 × 10^-7 M): 74%

SMILES: CSCC[C@H](NC(=O)c1ccc(CN(CCC2CCCCC2)C(=O)N(C)C)cc1-c1ccccc1C)C(=O)O [Example 610, N-[4-(N-(N,N-dimethylaminocarbonyl)-N-(2-cyclohexylethyl)aminomethyl)-2-(2-methylphenyl)benzoyl]methionine]
inhibition at 1 µM (at 1 × 10^-6 M): 94%

SMILES: CSCC[C@H](NC(=O)c1ccc(CNCc2ccco2)cc1-c1ccccc1)C(=O)O [Example 302, [4-(2-furylmethylaminomethyl)-2-phenylbenzoyl]methionine lithium salt]
inhibition at 1 µM: 31%

SMILES: CCSC[C@H](CC(C)C)N(C)Cc1ccc(C(=O)N[C@@H](CCSC)C(=O)O)c(-c2ccccc2C)c1 [Example 906, N-[4-(N-(1-ethylthio-4-methylpentan-2-yl)-N-methylaminomethyl)-2-(2-methylphenyl)benzoyl]-methionine]
inhibition at 0.1 µM (at 1 × 10^-7 M): 88%

SMILES: CSCC[C@H](NC(=O)c1ccc(CNc2ccc(C(=O)c3ccccc3)cc2)cc1-c1ccccc1)C(=O)O [Example 702]
inhibition at 10 µM: 79%

SMILES: COc1ccccc1COCc1ccc(C(=O)N[C@@H](CCSC)C(=O)[O-])c(-c2ccccc2C)c1.[Li+] [Example 931]
% inhibition of farnesyltransferase (at 1 × 10^-7 M): 98%

SMILES: CSCC[C@H](NC(=O)c1ccc(COCCCC23CC4CC(CC(C4)C2)C3)cc1-c1ccccc1C)C(=O)[O-].[Li+] [Example 599]
% inhibition of farnesyltransferase (at 1 × 10^-8 M): 86%

SMILES: CCCCN(CCCC)C(=O)CN(C)Cc1ccc(C(=O)N[C@@H](CCSC)C(=O)O)c(-c2ccccc2C)c1 [Example 913, N-[4-(N-(N,N-dibutylacetamido)-N-methylaminomethyl)-2-(2-methylphenyl)benzoyl]methionine]
inhibition at 0.1 µM (at 1 × 10^-7 M): 89%

SMILES: CSCC[C@H](NC(=O)c1ccc(CN(C)C(CC2CCCCC2)CC2CCCCC2)cc1-c1ccccc1C)C(=O)O [Example 907, N-[4-(N-(1,3-Dicyclohexylpropan-2-yl)-N-methylaminomethyl)-2-(2-methylphenyl)-benzoyl]methionine]
inhibition at 0.01 µM (at 1 × 10^-8 M): 79%

Next, values leading:

inhibition at 1 µM (at 1 × 10^-6 M): 67%
SMILES: COc1ccc(CC(=O)Nc2ccc(C(=O)N[C@@H](CCSC)C(=O)O)c(-c3ccccc3C)c2)cc1 [Example 542, N-[4-N-(4'-methoxyphenylacetyl)amino-2-(2-methylphenyl)benzoyl]methionine lithium salt]

inhibition at 1 µM (at 1 × 10^-6 M): 31%
SMILES: CSCC[C@H](NC(=O)c1ccc(CNc2cccc(C(N)=O)c2)cc1-c1ccccc1)C(=O)O [Example 682]

inhibition at 1 µM (at 1 × 10^-6 M): 95%
SMILES: CSCC[C@H](NC(=O)c1ccc(CN(CCCc2ccccc2)c2ccccc2)cc1-c1ccccc1C)C(=O)O [Example 508]

inhibition at 10 µM: 46%
SMILES: COc1ccc(C(=O)Nc2ccc(C(=O)N[C@@H](CCSC)C(=O)O)c(-c3ccccc3)c2)c(O)c1 [Example 758]

% inhibition of farnesyltransferase (at 1 × 10^-6 M): 98%
SMILES: CSCC[C@H](NC(=O)c1ccc(OCCCOc2ccccc2)cc1-c1ccccc1C)C(=O)O [Example 566]

inhibition at 0.1 µM (at 1 × 10^-7 M): 71%
SMILES: CCSC[C@H](CC1CCCCC1)N(Cc1ccc(C(=O)N[C@@H](CCSC)C(=O)O)c(-c2ccccc2C)c1)S(=O)(=O)c1ccccc1 [Example 951]

% inhibition of farnesyltransferase (at 1 × 10^-6 M): 73%
SMILES: CSCCC(NC(=O)c1ccc(CNC(CO)c2ccccc2)cc1-c1ccccc1)C(=O)O (stereo not drawn) [Example 658]

inhibition at 1 µM (at 1 × 10^-6 M): 95%
SMILES: CSCC[C@H](NC(=O)c1ccc(CN(C)CCc2ccccc2)cc1-c1ccccc1C)C(=O)O [Example 516, N-[4-N-methyl-N-(2-phenyethyl)aminomethyl-2-(2-methylphenyl)benzoyl]methionine lithium salt]

inhibition at 0.1 µM (at 1 × 10^-7 M): 96%
SMILES: CSCC[C@H](NC(=O)c1ccc(CN[C@H](CSc2ccccc2)CC2CCCCC2)cc1-c1ccccc1C)C(=O)O [Example 623, N-[4-(3-cyclohexyl-1-phenylthiopropan-2-ylaminomethyl)-2-(2-methylphenyl)benzoyl]methionine Lithium Salt]

% inhibition of farnesyltransferase (at 1 × 10^-8 M): 79%
SMILES: CCCCC(Cc1ccccc1Cl)OCc1ccc(C(=O)N[C@@H](CCSC)C(=O)O)c(-c2ccccc2C)c1 (stereo partly drawn) [Example 943]

% inhibition of farnesyltransferase (at 1 × 10^-7 M): 85%
SMILES: CSCC[C@H](NC(=O)c1ccc(CCc2ccc(Oc3ccccc3)nn2)cc1-c1ccccc1C)C(=O)O [Example 811]

% inhibition of farnesyltransferase (at 1 × 10^-6 M): 88%
SMILES: Cc1ccccc1-c1cc(CCc2cccc(Oc3ccccc3)c2)ccc1C(=O)N[C@@H](CC[S+](C)[O-])C(=O)O (stereo partly drawn) [Example 460]

inhibition at 0.01 µM (at 1 × 10^-8 M): 73%
SMILES: COc1ccc(N(Cc2ccccc2)Cc2ccc(C(=O)N[C@@H](CCSC)C(=O)O)c(-c3ccccc3C)c2)cc1 [Example 840, N-[4-(N-benzyl-N-(4-methoxyphenyl)aaminomethyl)-2-(2-methylphenyl)benzoyl]methionine lithium salt]

% inhibition of farnesyltransferase (at 1 × 10^-7 M): 88%
SMILES: CSCC[C@H](NC(=O)c1ccc(COCc2ccc(C)o2)cc1-c1ccccc1C)C(=O)O [Example 532]

% inhibition of farnesyltransferase (at 1 × 10^-7 M): 95%
SMILES: CSCC[C@H](NC(=O)c1ccc(COCc2cnc(-c3ccc(F)cc3)s2)cc1-c1ccccc1C)C(=O)O [Example 900]

inhibition at 10 µM: 61%
SMILES: COc1ccc(NCc2ccc(C(=O)N[C@@H](CCSC)C(=O)O)c(-c3ccccc3)c2)cc1 [Example 690]

% inhibition of farnesyltransferase (at 1 × 10^-6 M): 93%
SMILES: CSCC[C@H](NC(=O)c1ccc(OCCCCOc2ccccc2)cc1-c1ccccc1C)C(=O)O [Example 568]

% inhibition of farnesyltransferase (at 1 × 10^-6 M): 94%
SMILES: CSCC[C@H](NC(=O)c1ccc(/C=C/c2cnc(Oc3ccccc3)cn2)cc1-c1ccccc1C)C(=O)O [Example 812]

% inhibition of farnesyltransferase (at 1 × 10^-6 M): 94%
SMILES: Cc1ccccc1-c1cc(CN(C)C(C)(C)Cc2ccccc2)ccc1C(=O)N[C@@H](CCS(C)(=O)=O)C(=O)O [Example 313]

inhibition at 0.1 µM (at 1 × 10^-7 M): 78%
SMILES: CCCCN(CCCC)Cc1ccc(C(=O)N[C@@H](CCSC)C(=O)O)c(-c2ccccc2C)c1 [Example 917, N-[4-(N,N-Dibutylaminomethyl)-2-(2-methylphenyl)benzoyl]methionine]

% inhibition of farnesyltransferase (at 1 × 10^-6 M): 32%
SMILES: CSCCC(NC(=O)c1ccc(CNC(CO)c2ccccc2)cc1-c1ccccc1)C(=O)O (stereo not drawn) [Example 657]

inhibition at 1 µM (at 1 × 10^-6 M): 91%
SMILES: CSCC[C@H](NC(=O)c1ccc(NCC(CO)Cc2ccccc2)cc1-c1ccccc1C)C(=O)O (stereo partly drawn) [Example 476, N-[4-N-(2-benzyl-3-hydroxypropyl)amino-2-(2-methylphenyl)benzoyl]methioninesodium salt]

% inhibition of farnesyltransferase (at 1 × 10^-6 M): 87%
SMILES: CSCC[C@H](NC(=O)c1cc(Cc2ccccc2)c(COCCCc2ccccc2)cc1-c1ccccc1C)C(=O)O [Example 925]

% inhibition of farnesyltransferase (at 1 × 10^-6 M): 41%
SMILES: CSCC[C@H](NC(=O)c1ccc(S(=O)(=O)NC2CCN(Cc3ccccc3)CC2)cc1-c1ccccc1C)C(=O)O [Example 773]

% inhibition of farnesyltransferase (at 1 × 10^-6 M): 91%
SMILES: CSCC[C@H](NC(=O)c1ccc(OC/C=C/c2ccccc2)cc1-c1ccccc1C)C(=O)O [Example 560]
